One data set addresses T1, IRAK4 (Homo sapiens, UniProt Q9NWZ3).
T1 sequence (Q9NWZ3 1-460): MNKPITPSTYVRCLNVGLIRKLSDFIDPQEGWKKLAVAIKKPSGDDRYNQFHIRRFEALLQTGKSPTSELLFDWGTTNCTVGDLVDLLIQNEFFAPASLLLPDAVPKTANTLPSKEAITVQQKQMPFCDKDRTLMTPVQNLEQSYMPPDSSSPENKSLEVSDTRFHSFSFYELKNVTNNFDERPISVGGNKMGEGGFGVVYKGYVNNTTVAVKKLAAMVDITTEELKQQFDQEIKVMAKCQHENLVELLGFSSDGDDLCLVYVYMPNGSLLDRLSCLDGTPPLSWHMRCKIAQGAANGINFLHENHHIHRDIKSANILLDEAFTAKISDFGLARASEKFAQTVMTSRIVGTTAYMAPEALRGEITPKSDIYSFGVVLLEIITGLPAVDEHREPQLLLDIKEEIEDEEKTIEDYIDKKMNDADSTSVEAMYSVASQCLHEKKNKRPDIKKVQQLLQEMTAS
As to conditions: 1 μM; Run 1, Run 2.

The target of a further data set is T2, CYP2C8 (Homo sapiens, UniProt P10632).
T2 construct: tissue Corning 452117; host or cells: pooled human liver microsomes (UltraPool HLM 150, mixed gender)
In words: CYP inhibition assay. Format: in vitro ADME. The conditions noted are these: human liver microsomes.

A further data set has as its target ERBB4/HER4 (Homo sapiens, UniProt Q15303). In words: biochemical. The conditions noted are these: read-out: % enzyme activity, 1 μM; Run 1, Run 2.
For the next data set, the target named is MEK1 (Homo sapiens, UniProt Q02750). As to conditions: 1 μM; Run 1, Run 2.
For another data set, the target named is T3, DCAMKL2 (Homo sapiens, UniProt Q8N568).
T3 sequence (Q8N568 1-766): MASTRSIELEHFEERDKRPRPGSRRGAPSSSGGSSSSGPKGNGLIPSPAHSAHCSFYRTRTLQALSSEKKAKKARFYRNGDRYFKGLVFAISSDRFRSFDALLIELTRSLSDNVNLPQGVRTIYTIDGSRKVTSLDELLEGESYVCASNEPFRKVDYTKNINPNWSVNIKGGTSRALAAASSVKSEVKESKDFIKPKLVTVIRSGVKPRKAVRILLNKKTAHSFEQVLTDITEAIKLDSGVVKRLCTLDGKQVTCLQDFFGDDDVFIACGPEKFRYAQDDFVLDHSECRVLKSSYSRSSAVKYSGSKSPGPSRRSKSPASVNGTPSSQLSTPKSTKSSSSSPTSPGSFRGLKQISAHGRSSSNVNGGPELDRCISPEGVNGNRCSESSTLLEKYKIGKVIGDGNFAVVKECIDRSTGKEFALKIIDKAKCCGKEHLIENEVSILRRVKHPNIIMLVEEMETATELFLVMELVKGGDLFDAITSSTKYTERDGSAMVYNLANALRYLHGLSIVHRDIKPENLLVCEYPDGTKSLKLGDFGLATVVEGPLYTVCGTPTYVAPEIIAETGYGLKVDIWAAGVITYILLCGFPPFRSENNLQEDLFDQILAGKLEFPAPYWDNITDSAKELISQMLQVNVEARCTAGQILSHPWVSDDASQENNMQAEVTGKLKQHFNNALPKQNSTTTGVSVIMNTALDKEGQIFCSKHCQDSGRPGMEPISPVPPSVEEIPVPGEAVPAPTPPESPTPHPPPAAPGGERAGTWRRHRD
The conditions noted are these: 1 μM; Run 1, Run 2.

A further data set deals with T4, NEK1 (Homo sapiens, UniProt Q96PY6).
T4 sequence (Q96PY6 1-1258): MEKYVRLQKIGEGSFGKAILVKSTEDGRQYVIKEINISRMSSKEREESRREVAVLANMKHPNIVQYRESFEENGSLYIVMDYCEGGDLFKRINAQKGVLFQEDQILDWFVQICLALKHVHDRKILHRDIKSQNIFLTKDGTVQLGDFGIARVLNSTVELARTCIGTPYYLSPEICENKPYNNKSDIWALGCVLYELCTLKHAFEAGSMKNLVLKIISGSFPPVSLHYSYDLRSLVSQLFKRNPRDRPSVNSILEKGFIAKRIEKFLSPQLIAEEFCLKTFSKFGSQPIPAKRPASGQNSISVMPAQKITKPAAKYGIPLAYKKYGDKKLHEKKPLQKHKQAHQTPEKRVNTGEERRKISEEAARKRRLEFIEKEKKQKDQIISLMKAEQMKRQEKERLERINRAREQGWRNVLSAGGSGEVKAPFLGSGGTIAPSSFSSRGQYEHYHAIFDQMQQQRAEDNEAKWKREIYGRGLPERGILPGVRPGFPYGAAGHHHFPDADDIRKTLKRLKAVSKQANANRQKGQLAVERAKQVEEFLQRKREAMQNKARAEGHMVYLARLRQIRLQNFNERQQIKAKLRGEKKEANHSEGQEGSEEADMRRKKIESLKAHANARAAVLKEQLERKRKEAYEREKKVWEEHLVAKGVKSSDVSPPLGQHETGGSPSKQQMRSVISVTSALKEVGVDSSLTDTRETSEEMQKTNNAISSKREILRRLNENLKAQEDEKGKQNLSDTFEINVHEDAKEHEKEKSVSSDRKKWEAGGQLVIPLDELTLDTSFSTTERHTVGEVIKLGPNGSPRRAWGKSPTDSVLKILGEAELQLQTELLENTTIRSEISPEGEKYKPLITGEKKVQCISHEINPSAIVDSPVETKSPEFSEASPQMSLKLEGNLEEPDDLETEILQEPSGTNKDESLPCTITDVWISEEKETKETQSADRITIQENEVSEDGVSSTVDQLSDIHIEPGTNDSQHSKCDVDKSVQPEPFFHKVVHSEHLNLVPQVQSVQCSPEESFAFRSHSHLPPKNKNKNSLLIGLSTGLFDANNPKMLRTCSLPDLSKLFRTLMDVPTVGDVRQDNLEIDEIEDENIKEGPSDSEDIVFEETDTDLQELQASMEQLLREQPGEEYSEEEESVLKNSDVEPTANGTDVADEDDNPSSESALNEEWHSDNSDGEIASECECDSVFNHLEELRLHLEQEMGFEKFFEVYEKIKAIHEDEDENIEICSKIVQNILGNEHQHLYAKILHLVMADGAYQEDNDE
The conditions noted are these: 1 μM; Run 1, Run 2.

A further data set has as its target DYRK1B (Homo sapiens, UniProt Q9Y463). In words: biochemical. As to conditions: read-out: % enzyme activity, 1 μM; Run 1, Run 2.

Chain of ERBB4/HER4 (Q15303 26-1308): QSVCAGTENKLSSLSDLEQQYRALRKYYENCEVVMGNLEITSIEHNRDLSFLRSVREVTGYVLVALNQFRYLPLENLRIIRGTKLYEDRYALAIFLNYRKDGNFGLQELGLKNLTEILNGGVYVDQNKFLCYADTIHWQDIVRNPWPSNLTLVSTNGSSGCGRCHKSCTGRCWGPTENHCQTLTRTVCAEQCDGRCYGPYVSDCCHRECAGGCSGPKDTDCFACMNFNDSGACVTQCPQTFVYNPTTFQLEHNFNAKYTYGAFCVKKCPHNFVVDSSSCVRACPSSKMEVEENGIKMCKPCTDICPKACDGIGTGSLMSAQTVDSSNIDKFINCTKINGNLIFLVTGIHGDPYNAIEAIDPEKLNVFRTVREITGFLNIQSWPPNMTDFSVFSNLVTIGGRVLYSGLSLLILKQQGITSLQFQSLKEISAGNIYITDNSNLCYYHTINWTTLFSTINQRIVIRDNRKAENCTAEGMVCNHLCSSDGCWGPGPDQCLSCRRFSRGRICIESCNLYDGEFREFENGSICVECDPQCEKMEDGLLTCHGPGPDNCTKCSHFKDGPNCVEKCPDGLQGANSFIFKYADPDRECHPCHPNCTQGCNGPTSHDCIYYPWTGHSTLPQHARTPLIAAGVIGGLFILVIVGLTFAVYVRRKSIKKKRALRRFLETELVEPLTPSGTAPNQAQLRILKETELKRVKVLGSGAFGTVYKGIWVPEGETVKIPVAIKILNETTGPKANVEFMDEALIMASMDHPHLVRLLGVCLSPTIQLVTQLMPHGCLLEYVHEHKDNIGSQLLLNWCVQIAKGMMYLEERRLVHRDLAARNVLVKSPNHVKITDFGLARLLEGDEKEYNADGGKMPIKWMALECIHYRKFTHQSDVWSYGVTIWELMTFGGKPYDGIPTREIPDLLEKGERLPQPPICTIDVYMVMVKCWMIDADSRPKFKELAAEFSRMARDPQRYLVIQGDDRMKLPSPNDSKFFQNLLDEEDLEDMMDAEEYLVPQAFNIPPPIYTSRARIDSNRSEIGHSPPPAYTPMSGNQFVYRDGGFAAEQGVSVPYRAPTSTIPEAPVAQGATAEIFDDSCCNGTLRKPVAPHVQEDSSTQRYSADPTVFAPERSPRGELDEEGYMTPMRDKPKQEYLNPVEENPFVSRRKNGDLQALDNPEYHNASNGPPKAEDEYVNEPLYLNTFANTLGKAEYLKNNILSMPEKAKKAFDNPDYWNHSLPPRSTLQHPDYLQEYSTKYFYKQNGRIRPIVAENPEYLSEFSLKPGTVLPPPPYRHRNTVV
Chain of MEK1 (Q02750 whole entry): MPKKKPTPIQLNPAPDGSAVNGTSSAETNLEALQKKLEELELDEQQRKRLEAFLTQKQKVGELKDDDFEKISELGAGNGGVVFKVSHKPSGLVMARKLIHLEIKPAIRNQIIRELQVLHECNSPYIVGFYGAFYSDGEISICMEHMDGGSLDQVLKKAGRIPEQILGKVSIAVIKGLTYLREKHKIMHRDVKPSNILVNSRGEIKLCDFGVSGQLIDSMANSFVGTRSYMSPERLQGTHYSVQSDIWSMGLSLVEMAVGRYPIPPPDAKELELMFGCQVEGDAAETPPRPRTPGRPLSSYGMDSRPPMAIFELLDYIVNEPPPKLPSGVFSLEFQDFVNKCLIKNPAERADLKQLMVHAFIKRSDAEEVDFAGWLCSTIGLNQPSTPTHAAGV
T2 sequence (P10632 whole entry): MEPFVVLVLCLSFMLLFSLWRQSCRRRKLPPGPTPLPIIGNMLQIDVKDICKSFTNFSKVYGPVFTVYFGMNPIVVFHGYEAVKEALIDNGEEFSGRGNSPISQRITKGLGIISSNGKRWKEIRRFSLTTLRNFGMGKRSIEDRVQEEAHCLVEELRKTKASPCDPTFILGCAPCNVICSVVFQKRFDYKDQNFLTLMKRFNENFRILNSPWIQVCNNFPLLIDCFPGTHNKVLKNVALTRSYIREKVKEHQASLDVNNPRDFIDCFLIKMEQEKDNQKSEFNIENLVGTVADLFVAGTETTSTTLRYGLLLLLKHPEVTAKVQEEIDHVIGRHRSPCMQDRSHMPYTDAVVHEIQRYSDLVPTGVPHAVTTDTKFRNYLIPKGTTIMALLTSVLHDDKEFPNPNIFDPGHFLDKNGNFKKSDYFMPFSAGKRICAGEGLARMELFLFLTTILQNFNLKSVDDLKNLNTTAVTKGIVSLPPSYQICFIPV
Chain of DYRK1B (Q9Y463 whole entry): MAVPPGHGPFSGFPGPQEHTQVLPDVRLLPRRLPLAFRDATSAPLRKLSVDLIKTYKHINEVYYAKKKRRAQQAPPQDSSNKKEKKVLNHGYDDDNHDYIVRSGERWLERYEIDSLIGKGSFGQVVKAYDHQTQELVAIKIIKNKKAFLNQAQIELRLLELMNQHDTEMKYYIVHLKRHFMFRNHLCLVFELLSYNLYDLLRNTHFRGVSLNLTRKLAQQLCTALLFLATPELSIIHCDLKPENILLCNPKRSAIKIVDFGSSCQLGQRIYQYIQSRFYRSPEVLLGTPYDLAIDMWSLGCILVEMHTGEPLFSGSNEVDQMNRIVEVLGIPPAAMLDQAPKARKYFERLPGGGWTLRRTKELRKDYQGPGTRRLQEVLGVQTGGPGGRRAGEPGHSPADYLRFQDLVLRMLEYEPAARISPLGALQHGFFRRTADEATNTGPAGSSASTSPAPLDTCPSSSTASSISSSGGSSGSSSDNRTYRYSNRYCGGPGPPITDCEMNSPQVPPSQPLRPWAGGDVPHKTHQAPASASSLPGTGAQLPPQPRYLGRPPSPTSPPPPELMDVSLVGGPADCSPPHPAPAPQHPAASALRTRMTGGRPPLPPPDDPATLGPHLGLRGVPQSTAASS

`COc1cc(-c2cncc(-c3ccc(N4CCN(C)CC4)cc3)c2C)cc(F)c1C(N)=O` [Compound 26a, 2-Fluoro-6-methoxy-4-(4-methyl-5-(4-(4-methylpiperazin-1-yl)phenyl)pyridin-3-yl)benzamide]: the “% enzyme activity” value is 82.71% on IRAK4, 97.44% on MEK1, 62.07% at DCAMKL2 and 84.54% at NEK1. In addition, the IC50 at CYP2C8 is greater than 50 µM. Besides, the remaining activity at 1 µM on ERBB4/HER4 is 99.5%; at DYRK1B, 40.6%.
Turning to `COc1cc(-c2cncc(-c3ccc(N4C[C@@H](C)N(C)[C@@H](C)C4)cc3)c2C)cc(F)c1C(N)=O` [Compound 26c, 2-Fluoro-6-methoxy-4-(4-methyl-5-(4-((3R,5S)-3,4,5-trimethylpiperazin-1-yl)phenyl)pyridin-3-yl)benzamide], the “% enzyme activity” value is listed as 88.61% on IRAK4, 93.40% at MEK1, 82.24% at DCAMKL2 and 84.46% on NEK1. Also, the IC50 on CYP2C8 is greater than 50 µM. For the same compound, the remaining activity at 1 µM worked out at 94.9% on ERBB4/HER4 and 59.2% on DYRK1B.

(Values after publication PMC8213057, “Targeting ALK2: An Open Science Approach to Developing Therapeutics for the Treatment of Diffuse Intrinsic Pontine Glioma” (Journal of Medicinal Chemistry, 2020).)
